Target: T1, histamine 3 receptor (H3R) (Homo sapiens, UniProt Q9Y5N1)
T1 construct: expressed in transfected cells; host or cells: CHO cells (HR3-CHO cell line), membrane preparation
Experiment: Binding assay with 3H-(R)α-methylhistamine (competition binding, membranes of the human HR3-CHO cell line)
Settings: membrane of human HR3-CHO cell line; 3H(R)α-Methylhistamine 1 nM; Ki calculated from IC50 by Cheng-Prusoff equation
Experimental: Binding Assay with ^3H—(R)α-methylhistamine
Saturation binding experiments were performed using HR3-CHO membranes prepared as described in Takahashi, K, Tokita, S., Kotani, H. (2003) J. Pharmacol. Exp. Therapeutics 307, 213-218.
An appropriate amount of membrane (60 to 80 μg protein/well) was incubated with increasing concentrations of ^3H(R)α-Methylhistamine di-hydrochloride (0.10 to 10 nM). Non specific binding was determined using a 200 fold excess of cold (R)α-Methylhistamine dihydrobromide (500 nM final concentration). The incubation was carried out at room temperature (in deep-well plates shaking for three hours). The final volume in each well was 250 μl. The incubation was followed by rapid filtration on GF/B filters (pre-soaked with 100 μl of 0.5% PEI in Tris 50 mM shaking at 200 rpm for two hours). […] After harvesting, the plates were dried at 55° C. for 60 min, then we added scintillation fluid (Microscint 40, 40 microl in each well) and the amount of radioactivity on the filter was determined in Packard top-counter after shaking the plates for two hours at 200 rpm at room temperature. […]
All compounds were tested at a single concentration in duplicates. […] Ki's were calculated from IC50 based on Cheng-Prusoff equation (Cheng, Y, Prusoff, W H (1973) Biochem Pharmacol 22, 3099-3108).

T1 sequence (Q9Y5N1 whole entry): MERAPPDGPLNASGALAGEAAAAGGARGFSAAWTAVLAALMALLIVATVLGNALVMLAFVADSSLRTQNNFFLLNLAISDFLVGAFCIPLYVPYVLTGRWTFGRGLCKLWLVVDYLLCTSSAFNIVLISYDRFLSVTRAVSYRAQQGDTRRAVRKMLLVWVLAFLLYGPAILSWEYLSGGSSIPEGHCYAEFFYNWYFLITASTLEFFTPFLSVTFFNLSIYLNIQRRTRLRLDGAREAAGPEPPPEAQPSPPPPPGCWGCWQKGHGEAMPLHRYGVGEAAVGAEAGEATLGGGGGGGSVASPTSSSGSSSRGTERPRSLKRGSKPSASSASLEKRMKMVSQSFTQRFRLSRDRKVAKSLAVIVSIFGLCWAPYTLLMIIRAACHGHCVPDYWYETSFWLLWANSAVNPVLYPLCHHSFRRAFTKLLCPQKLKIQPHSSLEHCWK

| SMILES | Ki [nM] |
| --- | --- |
| CC(C)N1CC[C@H](Oc2ccc3[nH]c(C(=O)N4CCS(=O)(=O)CC4)cc3c2)C1 [Example 4, (1,1-Dioxo-thiomorpholin-4-yl)-[5-(1-isopropyl-pyrrolidin-3S-yloxy)-1H-indol-2-yl]-methanone] | 49 |
| CC(C)N1CCC(Oc2ccc3c(c2)cc(C(=O)N2CCS(=O)(=O)CC2)n3CC(F)(F)F)CC1 [Example 1, (1,1-Dioxo-thiomorpholin-4-yl)-[5-(1-isopropyl-piperidin-4-yloxy)-1-(2,2,2-trifluoro-ethyl)-1H-indol-2-yl]-methanone] | 3 |

Source: patent US7538101B2, “1,1-dioxo-thiomorpholinyl indolyl methanone derivatives” (Hoffmann-La Roche Inc., priority 2005, dated 2009)
